Reference: patent US20260034094A1, “COMPOSITIONS AND METHODS FOR INDUCING FERROPTOSIS” (Kojin Therapeutics, Inc., priority 2022, published 2026)
Where two headings read alike, the source gives them in different places.

Legend:
RKN cells = assay: RKN cell profiling assay (cell viability, CellTiter-Glo); type: cell-based
In short: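 Cells seeded at 1,000/well in F-12 with 10% FBS, left to adhere 24 h, then compound-treated for 96 h at 0.5% final DMSO. Viability by CellTiter-Glo luminescence; EC50 from four-parameter logistic fit. Ferroptosis rescue runs included 1.5 μM ferrostatin-1 added at seeding.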

human recombinant GCL = human recombinant GCL (Homo sapiens (Human), UniProt P48506); assay: GCL enzyme profiling assay (ADP-Glo luminescence); type: biochemical; settings: read-out: GCL IC50
Procedure: The GCL enzyme assay was run in 50 mM HEPES, pH 7.5, containing 150 mM NaCl, 30 mM MgCl2, 0.5 mM EDTA, 1 mM DTT, 0.1 mg/mL BSA, and 0.02% or in the present case 0.2% F-127 in a total assay volume of 10 μL or 10 mL. Compound in pure DMSO was stamped in assay plates (Greiner black 384-well) or appropriate containers using a D300e digital dispenser (TECAN) and the final DMSO concentration was normalized to 1%. A 5 mL, or in the present case, 5 μL mixture of human recombinant GCL (final concentration: 5 nM) and ATP (final concentration: 0.6 mM) was added and the solution was incubated at room temperature (22° C.) for 1 h. The GCL enzyme reaction was initiated by addition of a 5 μL mixture of mono g-glutamate or in the present example, monosodium glutamate (final concentration: 1 mM) and a-aminobutyrate or α-aminobutyrate (final concentration: 1.2 mM). The reaction was stopped after 1 h or in the present case, 2 h by addition of 5 mL, or in the present case, 5 μL ADP GLO Reagent (Promega). The resulting solution was incubated for 2 h at room temperature. This was then followed by addition of 5 mL, or in the present case, 5 μL ADP GLO Detection. After incubation at room temperature for 30 min, the plates were read on a plate reader (PheraStar) using a luminescence protocol to quantify the GCL enzyme activity from each reaction solution. The data was analyzed using a four-parameter logistic equation to calculate IC50.

[1] = 96 h, 96 h exposure, read-out: Cell Killing EC50
[2] = human recombinant GCL 5 nM, 1 h preincubation with ATP
[3] = cell viability, read-out: Cell Killing EC50
[4] = 96 h exposure, read-out: Cell Killing EC50

human recombinant GCL, sequence (P48506 whole entry): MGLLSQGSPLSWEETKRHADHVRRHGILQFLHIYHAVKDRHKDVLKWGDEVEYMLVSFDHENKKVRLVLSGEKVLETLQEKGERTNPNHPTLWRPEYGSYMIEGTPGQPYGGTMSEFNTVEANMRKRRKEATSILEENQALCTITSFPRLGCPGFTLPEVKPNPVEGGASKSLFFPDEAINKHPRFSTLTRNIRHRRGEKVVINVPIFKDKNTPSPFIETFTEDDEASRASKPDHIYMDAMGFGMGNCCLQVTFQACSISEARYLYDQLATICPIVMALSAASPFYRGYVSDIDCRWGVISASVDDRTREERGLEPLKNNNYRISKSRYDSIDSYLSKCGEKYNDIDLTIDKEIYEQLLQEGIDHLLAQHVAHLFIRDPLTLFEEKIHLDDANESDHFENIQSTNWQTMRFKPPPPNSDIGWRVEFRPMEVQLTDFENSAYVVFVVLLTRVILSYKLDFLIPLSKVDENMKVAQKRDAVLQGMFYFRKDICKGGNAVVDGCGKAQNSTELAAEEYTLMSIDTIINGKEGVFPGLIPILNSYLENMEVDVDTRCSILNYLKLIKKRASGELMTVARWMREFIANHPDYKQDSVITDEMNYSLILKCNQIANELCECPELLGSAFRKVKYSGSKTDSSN

Compound	EC50 (RKN cells; [1])	IC50 (human recombinant GCL; [2])	EC50 (RKN cells; [3])	IC50 (human recombinant GCL; human recombinant GCL, ADP-Glo)	also measured
N=S(=O)(CCC(c1ccc(-c2ccccc2Cl)cc1)C(F)(F)F)CC[C@H](N)C(=O)O (stereo partly drawn) [Compound 212, (2S)-2-amino-4-(3-(2′-chloro-[1,1′-biphenyl]-4-yl)-4,4,4-trifluorobutylsulfonimidoyl)butanoic acid]	< 1 mM	≤ 20 µM			
N=S(=O)(CCC(C(=O)O)C(F)(F)F)CC[C@H](N)C(=O)O (some centres unmarked) [Compound 306]			< 1 mM	≤ 20 µM	
CC(C)(C)CC[S@](=N)(=O)CC[C@H](N)C(=O)Nc1cccnc1 (single isomer, unassigned) [Compound 103]	< 1 mM	> 2000 µM			
N=S(=O)(CC[C@H](N)C(=O)O)CCC1(c2ccccn2)CCC1 (stereo partly drawn) [Compound 387, (2S)-2-amino-4-(2-(1-(pyridin-2-yl)cyclobutyl)ethylsulfonimidoyl)butanoic acid]			< 1 mM	20 to 2000 µM	
CCC(C)(C)OC(=O)[C@@H](N)CCS(=N)(=O)CCCC(F)(F)F (some centres unmarked) [Compound 484]			< 1 mM	20 to 2000 µM	
N=S(=O)(CCc1ccccc1)CC[C@H](N)C(=O)O (stereo partly drawn) [Compound 2, (2S)-2-amino-4-(2-phenylethylsulfonimidoyl)butanoic acid]	≥ 1 mM	20 to 2000 µM			
CC(C)(C)CCS(=N)(=O)CC[C@H](N)C(=O)NCCC(C)(C)O (some centres unmarked) [Compound 125]	< 1 mM	> 2000 µM			
CC(C)(CCS(=N)(=O)CC[C@H](N)C(=O)O)C(N)=O (some centres unmarked) [Compound 190]	≥ 1 mM	20 to 2000 µM			
Cc1cccc(CCS(=N)(=O)CC[C@H](N)C(=O)O)c1C (some centres unmarked) [Compound 27]	≥ 1 mM	20 to 2000 µM			
COC(CCS(=N)(=O)CC[C@H](N)C(=O)O)C(F)(F)F (some centres unmarked) [Compound 155]	< 1 mM	≤ 20 µM			
CCCCOC(=O)[C@@H](N)CCS(=N)(=O)CCC(C)C (some centres unmarked) [Compound 95]	< 1 mM	20 to 2000 µM			
N=S(=O)(CC[C@H](N)C(=O)O)CCC1(C(=O)N2CCC2)CCC1 (some centres unmarked) [Compound 196]	≥ 1 mM	20 to 2000 µM			
N=S(=O)(CC[C@H](N)C(=O)O)CCC(O)(c1ccc(C2CC2)cn1)C(F)(F)F (some centres unmarked) [Compound 475]			≥ 1 mM	20 to 2000 µM	
CC(C)OCCCS(=N)(=O)CC[C@H](N)C(=O)O (some centres unmarked) [Compound 162]	≥ 1 mM	20 to 2000 µM			
CCCCS(=N)(=O)CC[C@H](N)C(=O)OCC (some centres unmarked) [Compound 482]			≥ 1 mM	20 to 2000 µM	
CCCC(C)OC(=O)[C@@H](N)CCS(=N)(=O)CCCC(F)(F)F (some centres unmarked) [Compound 82]	< 1 mM	20 to 2000 µM			
N=S(=O)(CC[C@H](N)C(=O)O)CCC(O)(C(F)(F)F)C(F)(F)F (some centres unmarked) [Compound 301]			< 1 mM	≤ 20 µM	
N=S(=O)(CC[C@H](N)C(=O)O)CCC1(c2ncc(-c3ccc(Cl)cc3Cl)cn2)CCC1 (stereo partly drawn) [Compound 498, (2S)-2-amino-4-(2-(1-(5-(2,4-dichlorophenyl)pyrimidin-2-yl)cyclobutyl)ethylsulfonimidoyl) butanoic acid]			< 1 mM	≤ 20 µM	
N=S(=O)(CC[C@H](N)C(=O)O)CCC(O)(c1ccnc(C(F)(F)F)c1)C(F)(F)F (some centres unmarked) [Compound 364]			≥ 1 mM	20 to 2000 µM	
CC(C)(C#N)CCS(=N)(=O)CC[C@H](N)C(=O)O (some centres unmarked) [Compound 171]	≥ 1 mM	20 to 2000 µM			
CCCCS(=N)(=O)CC[C@H](N)C(=O)NCC#N (some centres unmarked) [Compound 106]	≥ 1 mM	> 2000 µM			

Compound	EC50 (RKN cells; [1])	IC50 (human recombinant GCL; [2])	EC50 (RKN cells; [3])	IC50 (human recombinant GCL; human recombinant GCL, ADP-Glo)	also measured
CC(C)(C)OC(=O)[C@@H](N)CC[S@@](=N)(=O)CCCC(F)(F)F [Compound 93]	< 1 mM	20 to 2000 µM			
N=S(=O)(CCC(c1ccc(S(=O)(=O)c2ccccc2)cc1)C(F)(F)F)CC[C@H](N)C(=O)O (stereo partly drawn) [Compound 216, (2S)-2-amino-4-(4,4,4-trifluoro-3-(4-(phenylsulfonyl)phenyl)butylsulfonimidoyl) butanoic acid]			≥ 1 mM	20 to 2000 µM	
N=[S@@](=O)(CC[C@H](N)C(=O)O)CC[C@](O)(c1ccccc1)C(F)(F)F [Compound 348, (S)-2-amino-4-((R,3S)-4,4,4-trifluoro-3-hydroxy-3-phenylbutylsulfonimidoyl)butanoic acid]			< 1 mM	≤ 20 µM	
CCCC(C)(C)OC(=O)[C@@H](N)CCS(=N)(=O)CCCC(F)(F)F (some centres unmarked) [Compound 89]	< 1 mM	> 2000 µM			
N=S(=O)(CC[C@H](N)C(=O)O)Cc1ccccc1C(=O)O (some centres unmarked) [Compound 168]	≥ 1 mM	20 to 2000 µM			
N=S(=O)(CCC(c1ccc(-c2ccccc2)cc1)C(F)(F)F)CC[C@H](N)C(=O)O (stereo partly drawn) [Compound 211, (2S)-4-(3-([1,1′-biphenyl]-4-yl)-4,4,4-trifluorobutylsulfonimidoyl)-2-aminobutanoic acid]	< 1 mM	≤ 20 µM			
CC(CS(=N)(=O)CC[C@H](N)C(=O)O)c1ccccc1Cl (some centres unmarked) [Compound 38]	≥ 1 mM	20 to 2000 µM			
N=S(=O)(CC[C@H](N)C(=O)O)CCC1(c2ccc(-c3ccc(Cl)cc3Cl)cc2)CCC1 (some centres unmarked) [Compound 402]			< 1 mM	≤ 20 µM	
N=[S@SP2](=O)(CCC(N)C(=O)O)CCC(O)(c1ccc(Nc2nccs2)cc1)C(F)(F)F (centres unmarked) [compound 505]			≥ 1 mM	≤ 20 µM	
CCCCS(=O)(CC[C@H](N)C(=O)OC)=NC(C)=O (stereo partly drawn) [Compound 197, (2S)-methyl 4-(N-acetylbutylsulfonimidoyl)-2-aminobutanoate]	≥ 1 mM	> 2000 µM			
N#Cc1ccccc1CCS(=N)(=O)CC[C@H](N)C(=O)O (some centres unmarked) [Compound 30]	≥ 1 mM	≤ 20 µM			
N=S(=O)(CCC(n1ncc(-c2ccccn2)n1)C(F)(F)F)CC[C@H](N)C(=O)O (some centres unmarked) [Compound 407]			≥ 1 mM	≤ 20 µM	
N=S(=O)(CC[C@H](N)C(=O)O)CCC(O)(c1ccc(-c2ccc(OC(F)(F)F)cc2O)cc1)C(F)(F)F (some centres unmarked) [Compound 458]			< 1 mM	≤ 20 µM	
N=S(=O)(CC[C@H](N)C(=O)O)CC(O)C1CCCC1 (some centres unmarked) [Compound 137]	< 1 mM	20 to 2000 µM			EC50 (RKN cells; 96 h, 96 h exposure, read-out: Cell Killing EC50 (mM), individual values in parentheses): 1.47 mM; EC50 (RKN cells; 96 h exposure, read-out: Cell Killing EC50 (mM), individual values in parentheses): 0.92 mM
N=S(=O)(CC[C@H](N)C(=O)O)CCC(O)(c1ncc(-c2ccccc2)[nH]1)C(F)(F)F (some centres unmarked) [Compound 358]			< 1 mM	≤ 20 µM	
Cc1cc(C(O)(CCS(=N)(=O)CC[C@H](N)C(=O)O)C(F)(F)F)ccc1-c1ccc(O)c(F)c1 (some centres unmarked) [Compound 455]			≥ 1 mM	≤ 20 µM	
CC1(CCS(=N)(=O)CC[C@H](N)C(=O)O)COC1 (some centres unmarked) [Compound 185]		20 to 2000 µM			EC50 (RKN cells; [4]): ≥ 1 mM
COC(CC[S@@](=N)(=O)CC[C@H](N)C(=O)O)C(F)(F)F (some centres unmarked) [Compound 177]		> 2000 µM			EC50 (RKN cells; [4]): ≥ 1 mM
C#CC(C)(C)CCS(=N)(=O)CC[C@H](N)C(=O)O (some centres unmarked) [Compound 299]			< 1 mM	20 to 2000 µM	
N=[S@](=O)(CC[C@H](N)C(=O)O)CCC(O)(c1ccccc1)C(F)(F)F (single isomer, unassigned) [Compound 345]			≥ 1 mM	> 2000 µM	
N=S(=O)(CC[C@H](N)C(=O)O)CC(=O)C1CCCC1 (stereo partly drawn) [Compound 136, (2S)-2-amino-4-(2-cyclopentyl-2-oxoethylsulfonimidoyl)butanoic acid]	≥ 1 mM	20 to 2000 µM			
